Reference: patent US10336707B2, “Heterocyclic derivatives modulating activity of certain protein kinases” (EUDENDRON S.R.L., priority 2014, dated 2019)

Tests used:
[1] = test system: NPM/ALK positive SUDHL-1 cells; experiment: Tritiated thymidine uptake cell proliferation assay, SUDHL1; assay type: cell-based; conditions: Homo sapiens, SU-DHL-1; cell line SUDHL1; read-out: IC50 of cellular proliferation, SUDHL1
Method: (§1) Method: Tritiated Thymidine Uptake Cell Proliferation Assay
(§2) The following procedure was used with parent untransformed BaF3 cells, BaF3 cells transformed with the oncogenic fusion protein NPM/ALK, NPM/ALK positive SUDHL-1 cells, NPM/ALK positive SUPM2, ALK-negative HL60 cells, NPM/ALK positive KARPAS-299 cells. The parent untransformed BaF3 cells or Alk-negative HL60 cells are used as controls. Cells were seeded in U-bottomed 96-well plates at 10000 cells/well in a volume of 100 μl in supplemented medium. In the case of the parent untransformed BaF3 cells, the medium was supplemented with IL-3. Serial dilutions of inhibitors were added to the appropriate wells and volumes adjusted to 200 μl. Controls were treated with the equivalent volume of vehicle, DMSO, alone. Plates were incubated at 37° C. for 72 h. 3[H]-thymidine (1 μCi/well) was added for the last 16 h of incubation. Cells were harvested on to paper filters and 3[H]-thymidine incorporation was measured using a scintillation counter (1430 MicroBeta, Wallac, Turku, Finland). The 50% inhibitory concentration (IC50) was defined as the concentration of inhibitor, expressed in nanomolar units, that gave a 50% decrease in 3[H]-thymidine uptake compared with controls.
(§3) In Table 4 are reported the IC50 of cellular proliferation assays of example 3 versus ALK positive, mutated and negative cell lines.

ROS = molecular target: T1, ROS (Homo sapiens, UniProt P08922); experiment: Radiometric protein kinase assay (33PanQuinase Activity Assay), ROS; assay type: biochemical; conditions: ATP 0.3 μM
T1 construct: either as full-length or enzymatically active fragments; purchased ProQinase GmbH (Freiburg, Germany)
T1 sequence (P08922 1883-2347 limits assumed): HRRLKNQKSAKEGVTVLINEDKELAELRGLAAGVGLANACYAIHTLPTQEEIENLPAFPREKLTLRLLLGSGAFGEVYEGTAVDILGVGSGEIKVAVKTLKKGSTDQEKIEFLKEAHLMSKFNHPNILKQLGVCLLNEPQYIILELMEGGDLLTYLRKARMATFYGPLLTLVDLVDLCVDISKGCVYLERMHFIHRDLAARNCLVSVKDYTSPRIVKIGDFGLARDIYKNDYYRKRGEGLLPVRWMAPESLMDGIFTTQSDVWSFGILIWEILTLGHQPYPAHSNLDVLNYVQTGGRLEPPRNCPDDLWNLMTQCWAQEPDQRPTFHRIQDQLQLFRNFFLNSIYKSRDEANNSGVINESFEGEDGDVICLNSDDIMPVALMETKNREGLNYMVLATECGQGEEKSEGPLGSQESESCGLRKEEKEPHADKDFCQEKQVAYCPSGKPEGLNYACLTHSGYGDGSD
Method: (§4) A proprietary radiometric protein kinase assay (33PanQuinase® Activity Assay) developed by ProQuinase GmbH (Freiburg, Germany) was used for measuring the kinase activity of selected protein kinases. All assays were performed in FlashPlates™ wells 96 Perkin Elmer (Boston, Mass., USA) in a reaction volume of 50 μl. The reaction mixture was obtained in 4 steps in the following order: • 1. 10 μl of a solution of non-radioactive ATP in water; • 2. 25 μl of assay buffer/[γ-^33P]-ATP mixture • 3. 5 μl of test sample in 10% DMSO • 4. 10 μl of enzyme/substrate mixture
(§5) All protein kinases provided by ProQinase were expressed in Sf9 insect cells or in E. coli as recombinant GST-fusion proteins or His-tagged proteins, either as full-length or enzymatically active fragments. […] Kinases from external vendors (CAR=Carna Biosciences Inc.; INV=Life Technologies (Invitrogen Corporation); MIL=Merck-Millipore (Millipore Corporation), were expressed, purified and quality-controlled by virtue of the vendors readings.
(§6) A stock solution of compound of formula (I) was diluted to 5×10-04M/100% DMSO. […] Incorporation of 33Pi (counting of “cpm”) was determined with a microplate scintillation counter (Microbeta, Wallac). […]
(§7) Based on each 10 corresponding residual activities, IC50 values were calculated using Prism 5.04 for Windows (Graphpad, San Diego, Calif.). […]

RET V804M = molecular target: T2, RET V804M (Homo sapiens, UniProt P07949, V804M); experiment: Radiometric protein kinase assay (33PanQuinase Activity Assay), RET V804M; assay type: biochemical; conditions: ATP 0.3 μM
T2 construct: either as full-length or enzymatically active fragments; purchased ProQinase GmbH (Freiburg, Germany)
T2 sequence (P07949 29-1114 V804M): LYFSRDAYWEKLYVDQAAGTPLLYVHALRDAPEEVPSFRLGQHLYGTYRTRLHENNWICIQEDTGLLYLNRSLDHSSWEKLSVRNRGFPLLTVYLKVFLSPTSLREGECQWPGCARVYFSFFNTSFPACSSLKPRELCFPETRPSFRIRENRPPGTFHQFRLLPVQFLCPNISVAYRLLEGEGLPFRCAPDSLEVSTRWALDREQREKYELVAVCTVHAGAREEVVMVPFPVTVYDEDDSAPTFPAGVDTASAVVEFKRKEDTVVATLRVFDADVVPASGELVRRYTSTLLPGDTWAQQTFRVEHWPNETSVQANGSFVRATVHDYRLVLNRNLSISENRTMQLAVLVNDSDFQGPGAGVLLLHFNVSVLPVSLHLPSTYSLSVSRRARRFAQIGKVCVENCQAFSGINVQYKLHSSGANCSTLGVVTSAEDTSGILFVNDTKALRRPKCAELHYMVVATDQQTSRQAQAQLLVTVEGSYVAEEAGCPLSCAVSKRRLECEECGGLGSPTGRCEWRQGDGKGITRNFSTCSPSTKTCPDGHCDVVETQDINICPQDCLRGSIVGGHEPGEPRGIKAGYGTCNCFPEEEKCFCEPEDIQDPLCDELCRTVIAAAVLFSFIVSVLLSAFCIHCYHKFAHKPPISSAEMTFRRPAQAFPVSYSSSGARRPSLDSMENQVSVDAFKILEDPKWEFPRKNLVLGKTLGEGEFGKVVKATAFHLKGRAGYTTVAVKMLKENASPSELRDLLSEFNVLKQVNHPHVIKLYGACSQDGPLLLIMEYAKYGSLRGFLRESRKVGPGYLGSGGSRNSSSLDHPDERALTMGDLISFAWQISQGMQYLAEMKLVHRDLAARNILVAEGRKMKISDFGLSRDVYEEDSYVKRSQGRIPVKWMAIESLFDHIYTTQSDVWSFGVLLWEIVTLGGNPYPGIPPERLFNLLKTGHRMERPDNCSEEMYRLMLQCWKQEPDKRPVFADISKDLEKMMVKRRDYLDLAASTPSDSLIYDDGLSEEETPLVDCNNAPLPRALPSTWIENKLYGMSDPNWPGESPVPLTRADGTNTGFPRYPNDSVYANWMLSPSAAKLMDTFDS
Method: as §4, §5, §6, §7

ALK F1174L (GST-His-tag) = molecular target: T3, ALK F1174L (GST-His-tag) (Homo sapiens, UniProt Q9UM73, F1174L); experiment: Radiometric protein kinase assay (33PanQuinase Activity Assay), ALK F1174L; assay type: biochemical; conditions: ATP 0.3 μM
T3 construct: either as full-length or enzymatically active fragments; purchased ProQinase GmbH (Freiburg, Germany)
T3 sequence (Q9UM73 19-1620 F1174L): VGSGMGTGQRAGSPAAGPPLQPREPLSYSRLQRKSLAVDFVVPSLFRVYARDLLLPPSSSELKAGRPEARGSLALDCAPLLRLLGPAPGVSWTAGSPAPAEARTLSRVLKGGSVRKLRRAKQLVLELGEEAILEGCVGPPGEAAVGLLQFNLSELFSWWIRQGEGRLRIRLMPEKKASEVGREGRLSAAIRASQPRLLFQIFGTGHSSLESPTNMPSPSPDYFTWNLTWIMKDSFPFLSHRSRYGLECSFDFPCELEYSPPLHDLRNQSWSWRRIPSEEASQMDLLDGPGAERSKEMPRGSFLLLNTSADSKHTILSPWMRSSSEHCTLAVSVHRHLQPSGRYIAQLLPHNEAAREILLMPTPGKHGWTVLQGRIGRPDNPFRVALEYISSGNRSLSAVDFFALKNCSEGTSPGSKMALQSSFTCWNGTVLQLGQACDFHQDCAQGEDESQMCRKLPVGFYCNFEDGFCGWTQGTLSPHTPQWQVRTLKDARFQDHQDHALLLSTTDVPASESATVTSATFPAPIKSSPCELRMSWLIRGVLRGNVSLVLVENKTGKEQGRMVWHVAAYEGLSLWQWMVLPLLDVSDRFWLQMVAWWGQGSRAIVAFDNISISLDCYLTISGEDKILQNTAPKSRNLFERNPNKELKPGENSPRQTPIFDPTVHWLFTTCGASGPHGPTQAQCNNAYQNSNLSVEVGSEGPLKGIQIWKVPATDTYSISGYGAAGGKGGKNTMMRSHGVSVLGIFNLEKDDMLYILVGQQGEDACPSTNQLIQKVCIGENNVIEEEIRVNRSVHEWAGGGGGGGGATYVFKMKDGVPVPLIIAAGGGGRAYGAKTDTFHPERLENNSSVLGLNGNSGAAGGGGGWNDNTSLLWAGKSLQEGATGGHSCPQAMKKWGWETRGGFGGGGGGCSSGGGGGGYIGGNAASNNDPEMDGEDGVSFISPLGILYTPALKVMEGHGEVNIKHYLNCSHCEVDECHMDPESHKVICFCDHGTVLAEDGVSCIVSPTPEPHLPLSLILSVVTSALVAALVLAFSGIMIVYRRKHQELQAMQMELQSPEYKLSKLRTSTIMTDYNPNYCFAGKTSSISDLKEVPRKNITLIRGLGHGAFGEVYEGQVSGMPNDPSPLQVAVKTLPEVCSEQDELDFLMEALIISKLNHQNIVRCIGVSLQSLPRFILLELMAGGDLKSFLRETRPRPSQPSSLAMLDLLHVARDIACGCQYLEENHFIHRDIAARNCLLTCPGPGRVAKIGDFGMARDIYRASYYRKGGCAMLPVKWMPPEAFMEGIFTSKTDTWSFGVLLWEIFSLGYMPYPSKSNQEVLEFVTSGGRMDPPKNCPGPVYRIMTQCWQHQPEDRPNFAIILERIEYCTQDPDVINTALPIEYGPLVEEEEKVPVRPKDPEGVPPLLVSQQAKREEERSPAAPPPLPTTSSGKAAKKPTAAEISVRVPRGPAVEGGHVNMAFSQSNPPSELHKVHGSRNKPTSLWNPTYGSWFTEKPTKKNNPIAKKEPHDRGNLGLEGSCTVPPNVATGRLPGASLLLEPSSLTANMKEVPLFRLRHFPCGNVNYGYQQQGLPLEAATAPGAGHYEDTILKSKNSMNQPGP
Method: as §4, §5, §6, §7

RET M918T = molecular target: T4, RET M918T (Homo sapiens, UniProt P07949, M918T); experiment: Radiometric protein kinase assay (33PanQuinase Activity Assay), RET M918T; assay type: biochemical; conditions: ATP 0.3 μM
T4 construct: either as full-length or enzymatically active fragments; purchased ProQinase GmbH (Freiburg, Germany)
T4 sequence (P07949 29-1114 M918T): as the sequence (P07949 29-1114 V804M) above, with M776V, M890T counted along it
Method: as §4, §5, §6, §7

[2] = test system: Karpas 299 lymphoma cell line positive for the oncogenic fusion protein NPM-ALK; experiment: Tritiated thymidine uptake cell proliferation assay, Karpas 299; assay type: cell-based; conditions: Homo sapiens
Method: as §1, §2
In Table 1 are listed results for selected examples of compounds of the invention, reported as percentage of inhibition of cell proliferation at 200 nM, obtained from cellular assays in Karpas 299 lymphoma cell line positive for the oncogenic fusion protein NPM-ALK.

BaF3 NPM-ALK L1152R = molecular target: T5, BaF3 NPM-ALK L1152R (Homo sapiens, UniProt Q9UM73, L1152R, cells depend on it); experiment: Tritiated thymidine uptake cell proliferation assay, BaF3 NPM-ALK L1152R; assay type: cell-based, murine; conditions: cell line BaF3 NPM-ALK L1152R; read-out: IC50 of cellular proliferation, BaF3 NPM-ALK L1152R
T5 construct: fused on or other part: P06748 (Nucleophosmin)
T5 sequence (Q9UM73 whole entry L1152R, the tested form may be a part): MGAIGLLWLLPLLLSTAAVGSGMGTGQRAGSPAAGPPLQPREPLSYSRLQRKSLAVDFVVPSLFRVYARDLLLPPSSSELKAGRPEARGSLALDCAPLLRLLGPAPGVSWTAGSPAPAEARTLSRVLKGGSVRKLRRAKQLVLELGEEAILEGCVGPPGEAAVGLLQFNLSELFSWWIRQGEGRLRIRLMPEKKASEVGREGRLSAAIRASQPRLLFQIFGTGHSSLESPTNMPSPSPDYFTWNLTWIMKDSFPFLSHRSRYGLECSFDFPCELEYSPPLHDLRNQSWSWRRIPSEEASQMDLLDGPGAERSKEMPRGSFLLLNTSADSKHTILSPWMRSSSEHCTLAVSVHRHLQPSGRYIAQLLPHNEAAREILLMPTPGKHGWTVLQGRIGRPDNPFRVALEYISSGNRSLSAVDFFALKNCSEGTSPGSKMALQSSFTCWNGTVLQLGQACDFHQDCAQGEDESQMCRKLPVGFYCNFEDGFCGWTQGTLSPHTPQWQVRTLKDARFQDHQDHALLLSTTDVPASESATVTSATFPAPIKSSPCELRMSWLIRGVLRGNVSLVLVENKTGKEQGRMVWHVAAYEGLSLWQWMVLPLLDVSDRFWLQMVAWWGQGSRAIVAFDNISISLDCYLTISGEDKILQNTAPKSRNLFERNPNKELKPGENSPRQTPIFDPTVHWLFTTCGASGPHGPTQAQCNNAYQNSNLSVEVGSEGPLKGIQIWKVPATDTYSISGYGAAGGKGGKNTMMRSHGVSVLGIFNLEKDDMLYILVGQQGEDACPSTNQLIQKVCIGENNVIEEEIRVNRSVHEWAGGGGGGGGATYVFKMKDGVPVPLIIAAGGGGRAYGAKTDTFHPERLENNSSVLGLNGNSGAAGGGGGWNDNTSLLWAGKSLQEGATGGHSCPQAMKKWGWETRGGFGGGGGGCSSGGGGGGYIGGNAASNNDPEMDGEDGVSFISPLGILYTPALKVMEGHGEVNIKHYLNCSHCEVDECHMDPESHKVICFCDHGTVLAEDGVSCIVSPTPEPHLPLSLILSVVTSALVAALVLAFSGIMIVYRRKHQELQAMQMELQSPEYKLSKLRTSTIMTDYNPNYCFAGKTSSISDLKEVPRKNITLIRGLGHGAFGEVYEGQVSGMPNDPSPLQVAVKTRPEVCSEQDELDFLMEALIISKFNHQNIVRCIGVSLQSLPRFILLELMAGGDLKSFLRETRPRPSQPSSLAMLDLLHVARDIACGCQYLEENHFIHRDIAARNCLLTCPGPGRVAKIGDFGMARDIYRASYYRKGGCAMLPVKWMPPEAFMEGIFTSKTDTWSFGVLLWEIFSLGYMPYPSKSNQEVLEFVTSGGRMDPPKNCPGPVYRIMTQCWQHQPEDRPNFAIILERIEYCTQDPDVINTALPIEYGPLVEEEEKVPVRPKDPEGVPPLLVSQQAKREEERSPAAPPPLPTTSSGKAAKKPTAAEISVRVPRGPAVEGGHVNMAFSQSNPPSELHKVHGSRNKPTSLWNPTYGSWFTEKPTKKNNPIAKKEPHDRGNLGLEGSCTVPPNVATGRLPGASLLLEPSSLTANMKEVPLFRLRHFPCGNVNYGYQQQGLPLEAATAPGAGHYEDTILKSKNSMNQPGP
Method: as §1, §2, §3

## CN1CCN(c2ccc(C(=O)Nc3n[nH]c4cc(-c5ccc(O)cc5)c(Cc5cc(F)cc(F)c5)cc34)c(NC3CCOCC3)c2)CC1 [Example 3, N-[5-[(3,5-difluorophenyl)methyl]-6-(4-hydroxyphenyl)-1H-indazol-3-yl]-4-(4-methylpiperazin-1-yl)-2-(tetrahydropyran-4-ylamino)benzamide]
[1]
  IC50: 36 nM
ROS
  IC50: 160 nM
RET V804M
  IC50: 85 nM
ALK F1174L (GST-His-tag)
  IC50: 46 nM
RET M918T
  IC50: 120 nM
[2]; KARPAS-299, read-out: % Inhibition Karpas 299 cells
  inhibition at 0.2 µM: 93%
[2]; KARPAS-299, read-out: IC50 of cellular proliferation, Karpas299
  IC50: 23 nM
BaF3 NPM-ALK L1152R
  GI50: 18 nM
